Here are results for nine molecules from PubChem BioAssay (NCI).

Test systems include BT-549 breast; CCRF-CEM leukemia; EKVX NSCLC; HCT-116 colon; HL-60(TB) leukemia; HOP-62 NSCLC; KM12 colon; MALME-3M melanoma; NCI/ADR-RES ovarian; OVCAR-4 ovarian; OVCAR-8 ovarian; RXF 393 renal; SF-539 CNS; SN12C renal; TK-10 renal; U251 CNS; A498 renal.
What all share (experiment): growth of human tumour cells (NCI), 48 h

SMILES strings stand for the structures.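 Five concentrations, 48 hours, 96-well plates. The concentration for full growth arrest is given as TGI.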

Consider `Cc1ccc(S(=O)(=O)Oc2ccc(OS(=O)(=O)c3ccc(C)cc3)c3c2C(=O)c2ccccc2C3=O)cc1`, for which the TGI with BT-549 breast, in the experiment with CCRF-CEM leukemia, in the experiment with EKVX NSCLC, with HCT-116 colon, in the experiment on HL-60(TB) leukemia and in the experiment with HOP-62 NSCLC was over 100 µM in each case. Further, the TGI in the experiment on KM12 colon was over 100 µM; in the experiment with MALME-3M melanoma it was over 100 µM; with NCI/ADR-RES ovarian it was over 100 µM; in the experiment on OVCAR-4 ovarian, over 100 µM; in the experiment with OVCAR-8 ovarian, over 100 µM; in the experiment on RXF 393 renal, 68.6 µM. The TGI in the experiment on SF-539 CNS, in the experiment with SN12C renal, with TK-10 renal and in the experiment on U251 CNS was over 100 µM each time.
Take `C=C1CC(Cn2cc(C)c(=O)[nH]c2=O)(c2ccc(-c3ccccc3)cc2)OC1=O` (centres undefined): the TGI in the experiment with A498 renal was 16.9 µM; in the experiment on BT-549 breast, 3.08 µM; in the experiment with EKVX NSCLC, 22.1 µM; in the experiment with HCT-116 colon, 2.03 µM; with HOP-62 NSCLC, 29.4 µM; in the experiment with KM12 colon, 7.36 µM. The TGI with MALME-3M melanoma is 6.81 µM; with NCI/ADR-RES ovarian it was 13.8 µM; in the experiment with OVCAR-4 ovarian, 6.76 µM; in the experiment with OVCAR-8 ovarian it was 4.98 µM; with SF-539 CNS, 8.38 µM; in the experiment with SN12C renal, 8.26 µM. In addition, the figures for the TGI with TK-10 renal and with U251 CNS were 2.76 µM and 16.1 µM, respectively.
Take `CC(C)[Si](OC1=C(C(=O)N(C)c2ccccc2Cl)CCC1)(C(C)C)C(C)C`: the TGI in the experiment on A498 renal was 30.7 µM; in the experiment with BT-549 breast, 29.8 µM; in the experiment on EKVX NSCLC, 31.1 µM; in the experiment with HCT-116 colon, 37 µM; in the experiment on HOP-62 NSCLC, 32.3 µM; in the experiment on KM12 colon, 50.2 µM. Also, the TGI with MALME-3M melanoma worked out at 34.6 µM; in the experiment with NCI/ADR-RES ovarian, 30.4 µM; in the experiment with OVCAR-4 ovarian, 38.1 µM; with OVCAR-8 ovarian it was 31 µM; with RXF 393 renal, 35.4 µM; with SF-539 CNS, 39.5 µM. The TGI in the experiment with SN12C renal was found to be 31.6 µM; with TK-10 renal it was 39.1 µM; in the experiment on U251 CNS, 31.1 µM.
Regarding `COc1ccccc1S(=O)Nc1ccccc1` (centres undefined), the TGI with BT-549 breast, with CCRF-CEM leukemia, in the experiment on EKVX NSCLC, in the experiment with HCT-116 colon, with HL-60(TB) leukemia and in the experiment with HOP-62 NSCLC was over 100 µM each time. For the same molecule, the TGI in the experiment with KM12 colon is 85.1 µM; in the experiment on MALME-3M melanoma, over 100 µM; with NCI/ADR-RES ovarian, over 100 µM; in the experiment with OVCAR-4 ovarian, over 100 µM; with OVCAR-8 ovarian, over 100 µM; in the experiment with SF-539 CNS, over 100 µM. In addition, the TGI in the experiment with SN12C renal, with TK-10 renal and with U251 CNS was over 100 µM throughout.
As for `CN(C)CC(CO)(CN(C)C)CN(C)C`, the TGI with BT-549 breast, in the experiment with CCRF-CEM leukemia, with EKVX NSCLC, in the experiment with HCT-116 colon, in the experiment on HL-60(TB) leukemia and with HOP-62 NSCLC was over 100 µM throughout. Moreover, the TGI with KM12 colon, in the experiment with MALME-3M melanoma, with NCI/ADR-RES ovarian, in the experiment with OVCAR-4 ovarian, with OVCAR-8 ovarian and in the experiment with RXF 393 renal was over 100 µM each time. Besides, the TGI in the experiment with SF-539 CNS, in the experiment on SN12C renal, in the experiment on TK-10 renal and with U251 CNS was over 100 µM in each case.
Take `Cc1c[nH]c(C(=O)O)c1-c1ccc2c(-c3ccccc3)nc3ccccc3n12`: the TGI with A498 renal is 28.3 µM; with BT-549 breast, over 100 µM; with CCRF-CEM leukemia, over 100 µM; in the experiment on EKVX NSCLC, over 100 µM; in the experiment on HCT-116 colon, over 100 µM; in the experiment with HOP-62 NSCLC, 46.4 µM. Further, the TGI was 56.8 µM with KM12 colon; 48.1 µM in the experiment on NCI/ADR-RES ovarian; over 100 µM in the experiment on OVCAR-4 ovarian; over 100 µM with OVCAR-8 ovarian; 55.2 µM with RXF 393 renal; 49.3 µM in the experiment with SF-539 CNS. The TGI with SN12C renal, in the experiment on TK-10 renal and with U251 CNS was over 100 µM throughout.
As to `CC1(C)CN=C(Nc2ccc(Cl)cc2)S1`, the TGI with BT-549 breast, in the experiment on CCRF-CEM leukemia, with EKVX NSCLC, with HCT-116 colon, in the experiment with HL-60(TB) leukemia and with HOP-62 NSCLC was over 100 µM throughout. Further, the TGI with KM12 colon, with MALME-3M melanoma, in the experiment with NCI/ADR-RES ovarian, in the experiment on OVCAR-4 ovarian, with OVCAR-8 ovarian and in the experiment on RXF 393 renal was over 100 µM in each case. In addition, the TGI with SF-539 CNS, in the experiment on SN12C renal, in the experiment on TK-10 renal and with U251 CNS was over 100 µM throughout.
As to `CC(C)CC(=O)NC(NC(C)C)(C(F)(F)F)C(F)(F)F`, the TGI in the experiment with BT-549 breast, in the experiment on CCRF-CEM leukemia, in the experiment on EKVX NSCLC, with HCT-116 colon, with HL-60(TB) leukemia and in the experiment with HOP-62 NSCLC was over 100 µM in each case. The TGI in the experiment on KM12 colon, in the experiment with MALME-3M melanoma, with NCI/ADR-RES ovarian, in the experiment on OVCAR-4 ovarian, with OVCAR-8 ovarian and in the experiment with RXF 393 renal was over 100 µM in each case. Also, the TGI in the experiment with SF-539 CNS, in the experiment on SN12C renal, in the experiment with TK-10 renal and in the experiment with U251 CNS was over 100 µM throughout.
Take `CC(=O)NCCc1c[nH]c2ccc(Cl)cc12`: the TGI in the experiment with BT-549 breast, in the experiment on CCRF-CEM leukemia, with EKVX NSCLC, in the experiment with HCT-116 colon, in the experiment on HL-60(TB) leukemia and in the experiment on HOP-62 NSCLC was over 100 µM in each case. Further, the TGI with KM12 colon, with MALME-3M melanoma, with NCI/ADR-RES ovarian, with OVCAR-4 ovarian, in the experiment on OVCAR-8 ovarian and with RXF 393 renal was over 100 µM throughout. The TGI in the experiment on SF-539 CNS, in the experiment on SN12C renal, with TK-10 renal and with U251 CNS was over 100 µM each time.
